Test systems include NCI-H460 lung; MCF7 breast; HOP-62 NSCLC; UACC-62 melanoma; A498 renal; DU-145 prostate; SN12C renal; RPMI-8226 leukemia; MDA-MB-435; HCT-116 colon.
What all share (test): DTP human tumour cell line panel, 48 h

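All cell lines were grown in 96-well plates and treated with compound for 48 hours. GI50 is the concentration that inhibits growth by half. TGI: concentration producing complete growth inhibition.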 A value given as a limit tells only on which side of the number the result lay.

`CCCCCn1c(=N)n(CC(O)COc2cccc(C)c2)c2ccccc21` (stereo not given): the GI50 (as a rule, the concentration that inhibits growth by half) was 4.62 µM with NCI-H460 lung; 2.85 µM with MCF7 breast; 12 µM with HOP-62 NSCLC; 4.85 µM with UACC-62 melanoma; 1.49 µM in the assay on A498 renal; 11.4 µM in the assay on DU-145 prostate. Further, the GI50 in the assay with SN12C renal is 5.41 µM; in the assay with RPMI-8226 leukemia it was 2.09 µM; with MDA-MB-435, 3 µM; with HCT-116 colon, 3.03 µM. Moreover, the TGI (in general, the concentration giving total growth inhibition) with NCI-H460 lung stood at 17.3 µM; in the assay with MCF7 breast, 11.6 µM; in the assay with HOP-62 NSCLC, 25.6 µM; with UACC-62 melanoma, 18.5 µM; in the assay with A498 renal, 13 µM; with DU-145 prostate, 24 µM. Besides, the TGI was determined as 19 µM in the assay on SN12C renal, 5.2 µM in the assay with RPMI-8226 leukemia, 11.2 µM in the assay on MDA-MB-435 and 17.7 µM in the assay with HCT-116 colon.

For the compound `COc1cc(Cl)cc(-c2nn(C(=O)NCCN3CCOCC3)cc2-c2ccncc2)c1`, the GI50 in the assay on NCI-H460 lung is 3.81 µM; in the assay with MCF7 breast it was 3.54 µM; with HOP-62 NSCLC, 6.03 µM; with UACC-62 melanoma, 3.72 µM; in the assay with A498 renal it was 3.1 µM; in the assay on DU-145 prostate it was 8.46 µM. The GI50 is 10 µM with SN12C renal, 7.38 µM in the assay with RPMI-8226 leukemia, 0.604 µM with MDA-MB-435 and 4.13 µM with HCT-116 colon. Besides, the TGI with NCI-H460 lung is greater than 100 µM; in the assay with MCF7 breast it was greater than 100 µM; in the assay on HOP-62 NSCLC, 63.6 µM; with UACC-62 melanoma, 20.4 µM; in the assay on A498 renal, 35.2 µM; in the assay on DU-145 prostate, 57.6 µM. Moreover, the TGI in the assay with SN12C renal is greater than 100 µM; with RPMI-8226 leukemia, greater than 100 µM; with MDA-MB-435, 3.61 µM; with HCT-116 colon it was 51.2 µM.

As for `COC(=O)[C@H](Cc1cn(C)cn1)NC(=O)[C@H](Cc1c[nH]c2ccccc12)NC(=O)Nc1cc(C(F)(F)F)cc(C(F)(F)F)c1`, the GI50 with NCI-H460 lung, in the assay with MCF7 breast, with HOP-62 NSCLC, with UACC-62 melanoma, in the assay on A498 renal and in the assay with DU-145 prostate was greater than 10 µM throughout. For the same compound, the GI50 in the assay on SN12C renal, in the assay on RPMI-8226 leukemia, in the assay on MDA-MB-435 and in the assay with HCT-116 colon was greater than 10 µM each time. Moreover, the TGI in the assay on NCI-H460 lung, in the assay on MCF7 breast, in the assay with HOP-62 NSCLC, with UACC-62 melanoma, with A498 renal and in the assay on DU-145 prostate was greater than 10 µM in each case. In addition, the TGI in the assay with SN12C renal, with RPMI-8226 leukemia, with MDA-MB-435 and in the assay on HCT-116 colon was greater than 10 µM in each case.

With `N#Cc1cnc2cc(OC[C@H](O)CO)c(NC(=O)CC3CSSC3)cc2c1Nc1ccc(OCc2cccc(F)c2)c(Cl)c1`, the GI50 is 0.126 µM in the assay on NCI-H460 lung; 0.0865 µM in the assay with MCF7 breast; 0.895 µM with HOP-62 NSCLC; 0.807 µM with UACC-62 melanoma; 1.03 µM in the assay with A498 renal; 0.637 µM with DU-145 prostate. Moreover, the 50% growth inhibitory concentration (GI50) in the assay with SN12C renal is 0.35 µM; in the assay on RPMI-8226 leukemia, 1.09 µM; in the assay with MDA-MB-435 it was 0.272 µM; in the assay with HCT-116 colon, 0.0977 µM. Further, the TGI in the assay on NCI-H460 lung came out at 0.298 µM; in the assay on MCF7 breast, 0.176 µM; in the assay with HOP-62 NSCLC, 1.81 µM; with UACC-62 melanoma, 1.68 µM; with A498 renal, 2.45 µM; in the assay on DU-145 prostate, 1.36 µM. Besides, the TGI was found to be 1.1 µM in the assay with SN12C renal, 2.49 µM in the assay with RPMI-8226 leukemia, 0.878 µM in the assay with MDA-MB-435 and 0.208 µM with HCT-116 colon.

Values taken from PubChem BioAssay (NCI).
